Data reported in publication doi:10.1101/2020.07.01.182642v1 (biorxiv, 2020).

How the values were obtained:
Conditions in all cases: binder
[1] = target: ZAK (Homo sapiens, UniProt Q9NYL2)
[2] = target: BMP2K (Homo sapiens, UniProt Q9NSY1)
[3] = target: T1, PHKG2 (Homo sapiens, UniProt P15735)
T1 sequence (P15735 1-406): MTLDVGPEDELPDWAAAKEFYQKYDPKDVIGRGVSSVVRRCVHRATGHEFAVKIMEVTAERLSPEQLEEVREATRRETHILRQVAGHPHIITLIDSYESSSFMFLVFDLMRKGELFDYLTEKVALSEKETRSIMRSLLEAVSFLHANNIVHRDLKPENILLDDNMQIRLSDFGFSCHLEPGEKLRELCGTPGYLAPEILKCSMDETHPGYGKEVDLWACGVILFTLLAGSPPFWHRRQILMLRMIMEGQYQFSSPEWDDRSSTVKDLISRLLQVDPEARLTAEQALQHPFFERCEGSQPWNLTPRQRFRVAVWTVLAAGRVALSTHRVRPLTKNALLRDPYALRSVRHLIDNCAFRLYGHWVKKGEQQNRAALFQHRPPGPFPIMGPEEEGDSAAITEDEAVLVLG

[4] = target: JAK1 (Homo sapiens, UniProt P23458)
[5] = target: DMPK (Homo sapiens, UniProt Q09013)
[6] = target: CDK6 (Homo sapiens, UniProt Q00534)
[7] = target: TGFBR1 (Homo sapiens, UniProt P36897)
[8] = target: T2, MYLK4 (Homo sapiens, UniProt Q86YV6)
T2 sequence (Q86YV6 1-388): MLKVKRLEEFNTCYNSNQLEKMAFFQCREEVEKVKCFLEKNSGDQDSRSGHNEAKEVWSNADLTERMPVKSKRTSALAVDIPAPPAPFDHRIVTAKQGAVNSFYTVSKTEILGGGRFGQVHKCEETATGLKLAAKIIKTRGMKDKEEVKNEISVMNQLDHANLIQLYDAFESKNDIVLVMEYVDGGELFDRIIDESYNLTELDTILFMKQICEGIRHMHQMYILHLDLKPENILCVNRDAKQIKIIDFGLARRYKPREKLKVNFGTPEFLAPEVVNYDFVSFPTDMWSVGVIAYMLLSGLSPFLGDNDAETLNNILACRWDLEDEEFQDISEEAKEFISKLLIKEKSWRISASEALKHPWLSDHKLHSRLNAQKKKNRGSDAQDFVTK

[9] = target: LYN (Homo sapiens, UniProt P07948)
Chain of LYN (P07948 whole entry): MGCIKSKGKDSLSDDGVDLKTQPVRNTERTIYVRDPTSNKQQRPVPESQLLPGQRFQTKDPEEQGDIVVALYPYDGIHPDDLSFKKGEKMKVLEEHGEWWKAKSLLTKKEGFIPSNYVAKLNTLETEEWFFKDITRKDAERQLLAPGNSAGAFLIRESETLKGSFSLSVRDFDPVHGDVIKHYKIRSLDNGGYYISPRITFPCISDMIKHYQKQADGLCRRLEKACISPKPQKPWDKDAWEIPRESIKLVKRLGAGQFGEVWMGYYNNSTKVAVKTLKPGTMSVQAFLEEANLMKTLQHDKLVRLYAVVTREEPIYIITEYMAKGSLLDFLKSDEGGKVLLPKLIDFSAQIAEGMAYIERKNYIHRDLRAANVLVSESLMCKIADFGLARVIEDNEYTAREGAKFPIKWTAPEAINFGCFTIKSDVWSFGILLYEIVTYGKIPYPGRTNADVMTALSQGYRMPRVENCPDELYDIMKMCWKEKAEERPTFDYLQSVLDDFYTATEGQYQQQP

[10] = target: MAPK9 (Homo sapiens, UniProt P45984)
Chain of MAPK9 (P45984 whole entry): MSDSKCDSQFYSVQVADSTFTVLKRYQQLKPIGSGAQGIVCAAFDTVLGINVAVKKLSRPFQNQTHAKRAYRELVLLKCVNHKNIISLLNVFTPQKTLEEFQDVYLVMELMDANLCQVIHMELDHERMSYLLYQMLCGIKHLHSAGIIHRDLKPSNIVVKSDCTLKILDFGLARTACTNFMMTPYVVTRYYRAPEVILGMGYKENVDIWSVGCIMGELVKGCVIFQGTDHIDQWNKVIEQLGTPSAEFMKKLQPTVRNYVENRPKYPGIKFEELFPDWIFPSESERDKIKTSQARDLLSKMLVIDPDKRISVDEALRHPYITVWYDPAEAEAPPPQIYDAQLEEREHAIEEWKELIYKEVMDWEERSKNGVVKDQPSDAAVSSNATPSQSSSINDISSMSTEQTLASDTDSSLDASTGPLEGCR

[11] = target: ACVRL1 (Homo sapiens, UniProt P37023)
[12] = target: RPS6KA2 (Homo sapiens, UniProt Q15349)
Chain of RPS6KA2 (Q15349 whole entry): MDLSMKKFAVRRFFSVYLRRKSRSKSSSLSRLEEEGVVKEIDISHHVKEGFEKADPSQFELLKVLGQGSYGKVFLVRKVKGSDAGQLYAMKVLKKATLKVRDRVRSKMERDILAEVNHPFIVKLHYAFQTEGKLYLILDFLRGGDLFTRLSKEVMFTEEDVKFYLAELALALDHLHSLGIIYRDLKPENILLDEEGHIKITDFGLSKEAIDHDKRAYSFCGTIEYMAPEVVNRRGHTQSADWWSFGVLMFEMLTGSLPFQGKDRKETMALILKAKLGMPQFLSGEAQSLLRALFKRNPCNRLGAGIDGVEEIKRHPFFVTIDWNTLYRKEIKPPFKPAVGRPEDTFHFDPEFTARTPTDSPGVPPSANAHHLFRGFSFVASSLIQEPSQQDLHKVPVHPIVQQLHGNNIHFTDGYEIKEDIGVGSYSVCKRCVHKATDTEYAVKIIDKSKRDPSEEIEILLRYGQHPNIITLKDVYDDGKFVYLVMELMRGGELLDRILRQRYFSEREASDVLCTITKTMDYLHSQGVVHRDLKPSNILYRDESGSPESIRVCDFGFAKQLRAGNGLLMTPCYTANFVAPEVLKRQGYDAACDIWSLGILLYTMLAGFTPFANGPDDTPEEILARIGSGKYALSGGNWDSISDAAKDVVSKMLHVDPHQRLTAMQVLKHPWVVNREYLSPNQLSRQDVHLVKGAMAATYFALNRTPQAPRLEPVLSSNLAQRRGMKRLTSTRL

[13] = target: CDK8 (Homo sapiens, UniProt P49336)
Chain of CDK8 (P49336 whole entry): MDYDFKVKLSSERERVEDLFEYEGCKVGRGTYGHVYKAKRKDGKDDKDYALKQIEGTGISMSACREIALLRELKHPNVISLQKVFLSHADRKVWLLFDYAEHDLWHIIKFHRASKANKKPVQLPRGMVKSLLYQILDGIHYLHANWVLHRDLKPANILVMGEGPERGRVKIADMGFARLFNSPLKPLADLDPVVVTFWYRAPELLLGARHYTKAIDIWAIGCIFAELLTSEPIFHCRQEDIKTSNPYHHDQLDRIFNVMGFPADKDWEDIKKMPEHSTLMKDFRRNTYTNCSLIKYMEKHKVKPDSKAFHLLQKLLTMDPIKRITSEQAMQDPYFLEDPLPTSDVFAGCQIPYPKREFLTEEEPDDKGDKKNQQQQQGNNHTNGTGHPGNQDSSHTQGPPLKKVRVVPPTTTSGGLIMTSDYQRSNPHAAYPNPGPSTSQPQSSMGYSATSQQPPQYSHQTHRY

[14] = target: RPS6KA6 (Homo sapiens, UniProt Q9UK32)
Chain of RPS6KA6 (Q9UK32 whole entry): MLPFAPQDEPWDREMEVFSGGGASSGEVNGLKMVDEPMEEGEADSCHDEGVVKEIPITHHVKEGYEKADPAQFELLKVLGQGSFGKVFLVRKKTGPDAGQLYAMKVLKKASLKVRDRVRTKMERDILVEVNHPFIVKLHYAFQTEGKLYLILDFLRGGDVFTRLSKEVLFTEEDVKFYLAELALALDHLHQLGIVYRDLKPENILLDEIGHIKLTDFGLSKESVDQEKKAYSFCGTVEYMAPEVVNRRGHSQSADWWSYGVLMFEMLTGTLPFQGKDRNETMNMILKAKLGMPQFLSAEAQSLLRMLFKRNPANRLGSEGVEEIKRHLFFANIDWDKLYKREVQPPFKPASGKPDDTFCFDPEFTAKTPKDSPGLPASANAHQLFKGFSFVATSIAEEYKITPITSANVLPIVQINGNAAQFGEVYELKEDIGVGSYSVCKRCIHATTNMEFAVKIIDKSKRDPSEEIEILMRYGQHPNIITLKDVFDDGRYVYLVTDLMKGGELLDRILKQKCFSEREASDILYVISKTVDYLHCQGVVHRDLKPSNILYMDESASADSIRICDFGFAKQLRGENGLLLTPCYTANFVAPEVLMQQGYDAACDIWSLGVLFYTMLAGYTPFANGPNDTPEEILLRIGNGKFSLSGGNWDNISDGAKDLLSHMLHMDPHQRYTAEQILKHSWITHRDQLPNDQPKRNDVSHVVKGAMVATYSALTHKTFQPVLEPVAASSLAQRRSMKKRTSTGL

[15] = target: CDC42BPG (Homo sapiens, UniProt Q6DT37)
[16] = target: PLK1 (Homo sapiens, UniProt P53350)
Chain of PLK1 (P53350 whole entry): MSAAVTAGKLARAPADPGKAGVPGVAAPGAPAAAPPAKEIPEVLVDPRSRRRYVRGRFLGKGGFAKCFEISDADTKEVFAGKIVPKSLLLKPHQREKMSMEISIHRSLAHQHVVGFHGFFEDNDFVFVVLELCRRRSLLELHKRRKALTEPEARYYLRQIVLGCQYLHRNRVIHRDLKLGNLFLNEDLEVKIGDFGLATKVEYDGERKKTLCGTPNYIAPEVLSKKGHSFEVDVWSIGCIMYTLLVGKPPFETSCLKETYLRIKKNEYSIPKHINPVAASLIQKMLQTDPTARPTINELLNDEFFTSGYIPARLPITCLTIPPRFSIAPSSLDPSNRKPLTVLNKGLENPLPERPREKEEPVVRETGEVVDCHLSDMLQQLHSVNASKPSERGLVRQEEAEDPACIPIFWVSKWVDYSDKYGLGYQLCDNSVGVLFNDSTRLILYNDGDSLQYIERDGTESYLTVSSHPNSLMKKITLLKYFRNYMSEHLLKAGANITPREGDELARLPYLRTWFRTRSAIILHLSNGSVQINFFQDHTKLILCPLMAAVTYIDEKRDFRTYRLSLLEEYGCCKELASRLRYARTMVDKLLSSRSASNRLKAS

[17] = target: CSNK1G3 (Homo sapiens, UniProt Q9Y6M4)
[18] = target: CLK1 (H148-I484) (Homo sapiens, UniProt P49759, V324A)
[19] = target: CLK3 (R134-T484) (Homo sapiens, UniProt P49761)
[20] = target: CLK3 (R134-T484) (Homo sapiens, UniProt P49761, A319V)
[21] = target: STK33 (Homo sapiens, UniProt Q9BYT3)
Chain of STK33 (Q9BYT3 whole entry): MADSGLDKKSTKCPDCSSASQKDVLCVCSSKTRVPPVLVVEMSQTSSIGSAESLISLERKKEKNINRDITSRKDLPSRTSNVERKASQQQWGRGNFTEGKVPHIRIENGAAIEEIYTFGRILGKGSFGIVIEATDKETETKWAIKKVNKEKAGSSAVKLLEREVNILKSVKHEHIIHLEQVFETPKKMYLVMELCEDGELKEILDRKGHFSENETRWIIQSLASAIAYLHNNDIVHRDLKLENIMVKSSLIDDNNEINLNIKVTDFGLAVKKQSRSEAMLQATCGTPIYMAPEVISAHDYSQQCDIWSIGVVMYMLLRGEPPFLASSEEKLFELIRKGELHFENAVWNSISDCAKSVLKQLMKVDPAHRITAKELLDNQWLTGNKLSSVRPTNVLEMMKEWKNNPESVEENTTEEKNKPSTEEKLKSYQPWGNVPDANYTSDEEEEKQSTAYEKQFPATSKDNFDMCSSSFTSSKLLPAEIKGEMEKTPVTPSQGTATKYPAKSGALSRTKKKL

[22] = target: MYLK2 (Homo sapiens, UniProt Q9H1R3)
[23] = target: CDKL5 (Homo sapiens, UniProt O76039)

Chain of ZAK (Q9NYL2 whole entry): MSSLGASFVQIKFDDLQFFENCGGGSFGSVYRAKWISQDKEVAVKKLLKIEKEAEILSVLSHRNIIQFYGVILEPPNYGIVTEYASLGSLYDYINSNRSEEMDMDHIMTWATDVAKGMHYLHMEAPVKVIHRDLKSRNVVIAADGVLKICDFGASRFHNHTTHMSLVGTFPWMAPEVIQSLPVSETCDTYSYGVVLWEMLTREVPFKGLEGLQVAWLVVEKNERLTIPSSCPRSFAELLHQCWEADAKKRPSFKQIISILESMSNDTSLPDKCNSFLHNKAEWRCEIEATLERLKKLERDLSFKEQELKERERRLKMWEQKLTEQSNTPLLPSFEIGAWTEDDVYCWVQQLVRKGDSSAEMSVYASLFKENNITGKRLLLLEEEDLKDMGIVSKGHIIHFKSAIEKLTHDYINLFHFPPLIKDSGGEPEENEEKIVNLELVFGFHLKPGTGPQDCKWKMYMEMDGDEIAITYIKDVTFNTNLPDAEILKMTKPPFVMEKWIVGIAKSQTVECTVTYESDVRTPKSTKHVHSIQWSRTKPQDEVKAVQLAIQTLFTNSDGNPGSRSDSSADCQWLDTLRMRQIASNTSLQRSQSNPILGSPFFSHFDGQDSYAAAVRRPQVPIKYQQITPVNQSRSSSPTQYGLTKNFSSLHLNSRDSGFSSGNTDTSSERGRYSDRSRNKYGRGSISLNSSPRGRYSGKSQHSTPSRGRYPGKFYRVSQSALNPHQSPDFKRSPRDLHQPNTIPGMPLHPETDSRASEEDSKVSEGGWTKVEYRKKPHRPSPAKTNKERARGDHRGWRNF

Structure (SMILES): CC(=O)c1cccc(-c2cnc3ccc(NCC4CC4)nn23)c1 [compound 1, K00135]
- ΔTm inhibitor 1 [1]: 1.4 °C
- ΔTm inhibitor 1 [2]: 10.7 °C
- ΔTm inhibitor 1 [3]: 1.7 °C
- ΔTm inhibitor 1 [4]: 6.4 °C
- ΔTm inhibitor 1 [5]: 1.0 °C
- ΔTm inhibitor 1 [6]: 0.1 °C
- ΔTm inhibitor 1 [7]: 9.5 °C
- ΔTm inhibitor 1 [8]: 5.8 °C
- ΔTm inhibitor 1 [9]: 2.4 °C
- ΔTm inhibitor 1 [10]: 0.8 °C
- ΔTm inhibitor 1 [11]: 11.1 °C
- ΔTm inhibitor 1 [12]: 2.7 °C
- ΔTm inhibitor 1 [13]: 2.7 °C
- ΔTm inhibitor 1 [14]: 4.2 °C
- ΔTm inhibitor 1 [15]: 0.6 °C
- ΔTm inhibitor 1 [16]: 2.0 °C
- ΔTm inhibitor 1 [17]: 0.3 °C
- ΔTm V324A CLK1 [18]: 4.9 °C
- ΔTm wild type CLK3 [19]: 1.4 °C
- ΔTm A319V CLK3 [20]: 5.8 °C
- ΔTm 1 [21]: 3.1 °C

Structure (SMILES): CCN1/C(=C/C(C)=O)Sc2ccc(OC)cc21 [compound 2, TG003]
- ΔTm inhibitor 2 [22]: -1.4 °C
- ΔTm inhibitor 2 [1]: -0.3 °C
- ΔTm inhibitor 2 [2]: 0.2 °C
- ΔTm inhibitor 2 [3]: 0.2 °C
- ΔTm inhibitor 2 [4]: 0.1 °C
- ΔTm inhibitor 2 [5]: 1.0 °C
- ΔTm inhibitor 2 [6]: 0.4 °C
- ΔTm inhibitor 2 [8]: 0.9 °C
- ΔTm inhibitor 2 [9]: 0.1 °C
- ΔTm inhibitor 2 [10]: 0.4 °C
- ΔTm inhibitor 2 [12]: 0.4 °C
- ΔTm inhibitor 2 [13]: 0.1 °C
- ΔTm inhibitor 2 [14]: 0.4 °C
- ΔTm inhibitor 2 [15]: -1.3 °C
- ΔTm inhibitor 2 [23]: 1.1 °C
- ΔTm inhibitor 2 [16]: 0.3 °C
- ΔTm 2 [21]: 0.6 °C

Structure (SMILES): Nc1nccc(-c2ccc3noc(-c4ccc(Cl)cc4)c3c2)n1 [compound 4, K00972]
- ΔTm inhibitor 4 [22]: 0.0 °C
- ΔTm inhibitor 4 [1]: 0.3 °C
- ΔTm inhibitor 4 [3]: 1.7 °C
- ΔTm inhibitor 4 [7]: 0.9 °C
- ΔTm inhibitor 4 [8]: 3.9 °C
- ΔTm inhibitor 4 [9]: 0.3 °C
- ΔTm inhibitor 4 [10]: 0.9 °C
- ΔTm inhibitor 4 [11]: 1.2 °C
- ΔTm inhibitor 4 [12]: 1.0 °C
- ΔTm inhibitor 4 [13]: 1.9 °C
- ΔTm inhibitor 4 [14]: 2.1 °C
- ΔTm inhibitor 4 [23]: 0.3 °C
- ΔTm inhibitor 4 [16]: 0.4 °C
- ΔTm inhibitor 4 [17]: 1.2 °C
- ΔTm V324A CLK1 [18]: 2.4 °C
- ΔTm wild type CLK3 [19]: 0.1 °C
- ΔTm A319V CLK3 [20]: 0.6 °C
- ΔTm 4 [21]: 2.4 °C
